Series [1] in a line: Peptide diluent matrix (precipitation of DMSO dissolved peptides in various liquids). In kind it is physicochemical. More on the design: key to Precipitation in diluent: Liposome / Precipitation in diluent: PBS pH 7.4 / Precipitation in diluent: Water / Precipitation in diluent: 10% Sucrose / Precipitation in diluent: D5W (5% Dextrose USP Grade Inj): P = precipitation; NP = no precipitation. The following applies: for Precipitation in diluent: 10% Sucrose: 10-20 μL DMSO dissolved peptide added to 10% Sucrose; for Precipitation in diluent: D5W (5% Dextrose USP Grade Inj): 10-20 μL DMSO dissolved peptide added to D5W; for Precipitation in diluent: Liposome: 10-20 μL DMSO dissolved peptide added to Liposome; for Precipitation in diluent: PBS pH 7.4: 10-20 μL DMSO dissolved peptide added to PBS pH 7.4; for Precipitation in diluent: Water: 10-20 μL DMSO dissolved peptide added to Water. The procedure:
Additional peptide solubility conditions were tested. Peptides CS6709, CS6712, CS6720, CS6726, and CS6783 were weighed at approximately 10 mg each. The peptides were then dissolved in approximately 200 μL USP grade DMSO to obtain a 50 mg/mL concentration for each peptide. […] The sample appeared to be cloudy. Additional 50 μL increments of DMSO were added to Peptide CS6709 up to 400 μL; for a total of 600 μL of DMSO. […] To dilute the peptides to 400 μg, a PBS pH 7.4 solution without potassium was prepared. All 5 DMSO peptide samples (50 mg/mL) were placed in a single vial for dilution to 400 μg/mL. Each DMSO peptide was added to the vial at 40 μL, except for CS6709 which was at a concentration of 16.67 mg/mL. The volume of CS6709 added to the single vial was 120 μL. The samples were diluted to 400 μg by adding 4.72 mL PBS pH 7.4. Upon addition of the PBS pH 7.4, it was observed that one or more of the peptides had precipitated out. To determine which of the peptides precipitated, Applicants followed the matrix in Table 5 below using very small amounts (10-20 μL) of the DMSO dissolved peptides and adding these peptides to the various liquids.

The nature of series [2]: Direct dissolution of peptides in D5W without DMSO. The format is physicochemical. The following applies: <1 mg peptide.
The nature of series [3]: Short-term room temperature stability of Pool 3 mixed with Hiltonol (RP-HPLC). In kind it is physicochemical. The procedure: A peptide pool (Pool 3) consisting of the five peptides shown in Table 6 below was prepared by dissolution in DMSO and dilution with D5W/Succinate (2 mM) to 2 mg/ml and pooling to a final peptide concentration of 400 μg per ml and a final DMSO concentration of 4%. After preparation, peptides were filtered with a 25 mm Pall PES filter (Cat#4612) and dispensed into Nunc Cryo vials (#375418) in one ml aliquots.
Three samples were prepared by mixing 0.75 ml of Pool3 with 0.25 ml Hiltonol® as planned for the dosage form preparation. The samples were then left at room temperature for 0, 4 and 6 hours and analyzed by RP-HPLC (Table 7). […] As slight increase in a second peak associated with peptide CS6919 was noted, increasing from 14% to 17% and 18% at 4 and 6 hours, respectively. […] Recovery of all peptides was above 90%, indicating no breakdown and loss of any peptides in the final dosage form after 6 hour room temperature incubation.

Series [4] in a line: pH of peptide solutions in DMSO/D5W, with succinate, and with Hiltonol. In kind it is physicochemical.
Series [5] in a line: Solubility of peptides in DMSO/D5W/5 mM succinate formulation. The conditions noted are these: pH 6.

Several values for one entry are separate records, joined by “and”; a condition that tells them apart may be missing. Equal entries are not always repeated.

In the case of “H-DSAVDKGHPNRSALSLTPGLRIGPSGIPQAGLG-OH [CS6726]”, in series [1], the “Precipitation in diluent: 10% Sucrose” value is “NP”, the “Precipitation in diluent: D5W (5% Dextrose USP Grade Inj)” value is recorded as “NP”, the “Precipitation in diluent: Liposome” value is “NP” and the “Precipitation in diluent: PBS pH 7.4” value is listed as “NP”. Moreover, the “Precipitation in diluent: Water” value in series [1] was “NP”. The “Dissolution directly in D5W without using DMSO” value in series [2] is recorded as “could be dissolved directly in D5W”.
As for “H-KLAWRGRISSSGCPSMTSPPSPMFGMTLHT-OH [CS6919]”, in series [3] (Pool 3 + Hiltonol, 4 Hours RT), the “% Impurity” value was 17% and 17.09%; the “% Purity” value is listed as 82.91%; the “Main Peak” value was 7238.56; the “Total Impurities” value was 1492.4. Moreover, the “Total Peak” value in series [3] (Pool 3 + Hiltonol, 4 Hours RT) is 8730.96. Also, in series [3] (Pool 3 + Hiltonol, 6 Hours RT), the “% Impurity” value was 18% and 18.14%; the “% Purity” value was determined as 81.86%; the “Main Peak” value is given as 7688.89; the “Total Impurities” value turned out to be 1703.9. Moreover, the “Total Peak” value in series [3] (Pool 3 + Hiltonol, 6 Hours RT) turned out to be 9392.79. For the same substance, in series [3] (T0 Pool 3 + Hiltonol, RP-HPLC), the “% Impurity” value is 14% and 13.9%; the “% Purity” value is 86.1%; the “Main Peak” value is on record as 7786.28; the “Total Impurities” value was determined as 1256.72. In addition, in series [3] (T0 Pool 3 + Hiltonol, RP-HPLC), the “Total Peak” value turned out to be 9043. In series [4], the “pH of peptides in DMSO/D5W” value is on record as 4.38; the “pH of peptides in DMSO/D5W/5mM S. Succinate spike” value turned out to be 6.74; the “pH of peptides in DMSO/D5W/5nnM Succinate and Hiltonol” value was 6.99.
As a reminder, the solubility is the concentration that dissolves in the medium under given conditions. In turn, H-HPEFANPDSMEYISDVVDEVIQN-OH displayed a solubility in series [5] above 2000 µg/mL.
The same measure, in the same setting: next, H-LDVLQRPLSPGNSEFLTATANYSK-OH: below 2000 µg/mL.
In series [5], H-PAAGDFIRFRFFQLLRLERFF-OH returned a solubility below 2000 µg/mL.
On the same count and under the same terms, next, H-SLPKSFKRKIFVVSATKGVPAGNSD-OH: above 2000 µg/mL.
“H-LKDSNSWPPSNKRGFDTEDAHKSNATPVP-OH [CS6712]”: in series [1], the “Precipitation in diluent: 10% Sucrose” value was “NP”, the “Precipitation in diluent: D5W (5% Dextrose USP Grade Inj)” value was “NP”, the “Precipitation in diluent: Liposome” value was “NP” and the “Precipitation in diluent: PBS pH 7.4” value is recorded as “NP”. Further, the “Precipitation in diluent: Water” value in series [1] is given as “NP”. The “Dissolution directly in D5W without using DMSO” value in series [2] is given as “could be dissolved directly in D5W”.
In series [5], H-LAALCPASRALEEKKGNYVVTDHGS-OH showed a solubility above 2000 µg/mL.
As for H-AESAQRQGPNGGGEQSANEF-OH [CS7416], in series [3] (Pool 3 + Hiltonol, 4 Hours RT), the “% Impurity” value is 2.56%, the “% Purity” value is 97.44%, the “Main Peak” value was determined as 5669.85 and the “Total Impurities” value is 148.82. In series [3] (Pool 3 + Hiltonol, 4 Hours RT), the “Total Peak” value is 5818.67. Further, in series [3] (Pool 3 + Hiltonol, 6 Hours RT), the “% Impurity” value was 2.1%, the “% Purity” value turned out to be 97.9%, the “Main Peak” value is listed as 6197.48 and the “Total Impurities” value stood at 132.83. The “Total Peak” value in series [3] (Pool 3 + Hiltonol, 6 Hours RT) is listed as 6330.31. In addition, in series [3] (T0 Pool 3 + Hiltonol, RP-HPLC), the “% Impurity” value is on record as 2.35%, the “% Purity” value worked out at 97.65%, the “Main Peak” value worked out at 5988.42 and the “Total Impurities” value is given as 143.98. Further, the “Total Peak” value in series [3] (T0 Pool 3 + Hiltonol, RP-HPLC) was determined as 6132.4. Also, in series [4], the “pH of peptides in DMSO/D5W” value is reported as 3.91; the “pH of peptides in DMSO/D5W/5mM S. Succinate spike” value is 6.31; the “pH of peptides in DMSO/D5W/5nnM Succinate and Hiltonol” value is 6.54.
Turning to H-GALGAVGATKVPRNQDWLGVSRQLRTKA-OH, in series [5], the solubility is above 2000 µg/mL.
“H-VAGLAASGLHGSAWLVPGEQPVSGPHHGKQ-OH [CS6931]”: in series [3] (Pool 3 + Hiltonol, 4 Hours RT), the “% Impurity” value is given as 3.02%, the “% Purity” value was 96.98%, the “Main Peak” value is reported as 8523.53 and the “Total Impurities” value stood at 265.54. Also, the “Total Peak” value in series [3] (Pool 3 + Hiltonol, 4 Hours RT) was found to be 8789.07. For the same substance, in series [3] (Pool 3 + Hiltonol, 6 Hours RT), the “% Impurity” value was found to be 3.21%, the “% Purity” value stood at 96.79%, the “Main Peak” value is listed as 9387.81 and the “Total Impurities” value is given as 311.37. Further, in series [3] (Pool 3 + Hiltonol, 6 Hours RT), the “Total Peak” value worked out at 9699.18. In series [3] (T0 Pool 3 + Hiltonol, RP-HPLC), the “% Impurity” value was determined as 2.16%, the “% Purity” value is 97.84%, the “Main Peak” value was found to be 9014.82 and the “Total Impurities” value is 198.6. Also, the “Total Peak” value in series [3] (T0 Pool 3 + Hiltonol, RP-HPLC) worked out at 9213.42. Further, in series [4], the “pH of peptides in DMSO/D5W” value is 3.80; the “pH of peptides in DMSO/D5W/5mM S. Succinate spike” value turned out to be 6.42; the “pH of peptides in DMSO/D5W/5nnM Succinate and Hiltonol” value worked out at 6.66.
H-DPNKYPVPENWLYKEAHQLFLE-OH registered a solubility in series [5] above 2000 µg/mL.
On the same count and under the same terms, next, H-LAALCPASRALEEKKGNYVVTDH-OH: above 2000 µg/mL.

(Values after patent publication US20190060428A1, “FORMULATIONS FOR NEOPLASIA VACCINES AND METHODS OF PREPARING THEREOF” (The Broad Institue Inc., priority 2015, published 2019).)
